Values quoted from earlier work, collected in patent US20220225651A1, “STEVIOL GLYCOSIDE AND FERULIC ACID FORMULATIONS FOR FOOD AND BEVERAGES” (Sweegen, Inc., priority 2021, published 2022).

Details: sweetness relative to sucrose

| Molecule | times sweeter than sucrose |
| --- | --- |
| C=C1C[C@@]23CC[C@H]4[C@@](C)(CCC[C@@]4(C)C(=O)O[C@@H]4O[C@H](CO)[C@@H](O)[C@H](O)[C@H]4O)[C@@H]2CC[C@]1(O[C@@H]1O[C@H](CO)[C@@H](O)[C@H](O)[C@H]1O[C@@H]1O[C@@H](C)[C@H](O)[C@@H](O)[C@H]1O)C3 [Dulcoside A] | about 30 times |
| C=C1C[C@@]23CC[C@H]4[C@@](C)(CCC[C@@]4(C)C(=O)O[C@@H]4O[C@H](CO)[C@@H](O)[C@H](O)[C@H]4O)[C@@H]2CC[C@]1(O[C@@H]1O[C@H](CO)[C@@H](O)[C@H](O)[C@H]1O[C@@H]1O[C@H](CO)[C@@H](O)[C@H](O)[C@H]1O)C3 [stevioside] | 100-150 times |
| Rebaudioside C | 40-60 times |
